Measurements: patent US5214204A, “Arylamidoalkyl-N-hydroxyurea compounds having lipoxygenase inhibitory activity” (Abbott Laboratories, priority 1991, dated 1993)

Biological target: T1, 5-Lipoxygenase from HWBL-1 20,000 xg Supernatant (Rattus norvegicus, UniProt P12527)
T1 construct: 20,000 xg supernatant from 1.5 million homogenized HWBL-1 cells; endogenous in cells
T1 sequence (P12527 1-673): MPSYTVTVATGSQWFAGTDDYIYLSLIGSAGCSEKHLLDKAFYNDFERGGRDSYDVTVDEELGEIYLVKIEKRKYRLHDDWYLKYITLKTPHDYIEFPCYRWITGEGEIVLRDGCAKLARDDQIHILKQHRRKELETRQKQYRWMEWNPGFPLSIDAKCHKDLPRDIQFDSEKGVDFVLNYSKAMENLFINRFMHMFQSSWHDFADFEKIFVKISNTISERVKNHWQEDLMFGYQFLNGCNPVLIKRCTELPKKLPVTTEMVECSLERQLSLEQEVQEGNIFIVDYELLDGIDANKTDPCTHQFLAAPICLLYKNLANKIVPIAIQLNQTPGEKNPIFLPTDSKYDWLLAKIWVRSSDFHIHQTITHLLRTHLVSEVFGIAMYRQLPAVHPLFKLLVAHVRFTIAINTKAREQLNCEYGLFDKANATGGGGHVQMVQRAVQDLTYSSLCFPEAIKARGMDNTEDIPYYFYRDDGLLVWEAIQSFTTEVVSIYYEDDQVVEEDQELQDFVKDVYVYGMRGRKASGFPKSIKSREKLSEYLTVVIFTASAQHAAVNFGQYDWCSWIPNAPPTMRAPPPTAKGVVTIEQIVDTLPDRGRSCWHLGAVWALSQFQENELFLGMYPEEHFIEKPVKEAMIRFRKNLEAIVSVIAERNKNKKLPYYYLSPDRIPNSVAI
Assay: 5-lipoxygenase inhibition, 20,000 xg supernatant of homogenized HWBL-1 cells, radiolabeled arachidonic acid
Type: biochemical
Conditions: read-out: IC50 (in vitro inhibitory potency against 5-lipoxygenase)
Experimental: Assays to determine 5-lipoxygenase inhibitory activity of representative compounds of the present invention were performed in […] incubations containing the 20,000 xg supernatant from 1.5 million homogenized HWBL-1 cells and various concentrations of the test compound. Reactions were initiated by addition of radiolabeled arachidonic acid and terminated by acidification and ether extraction. Reaction products were separated from nonconverted substrate by thin layer chromatography and measured by liquid scintillation spectroscopy. All incubations are performed in triplicate. Inhibition of 5-lipoxygenase activity was calculated as the ratio of the amount of product formed in the presence and absence of inhibitor. IC50 values (concentration of compound producing 50% enzyme inhibition) were calculated by linear regression analysis of percentage inhibition versus log inhibitor concentration plots. (Dyer, R. D.; Haviv, F.; Hanel, A. M.; Bornemier, D. A.; Carter, G. W. Fed. Proc., Fed. Am. Soc. Exp. Biol. 1984, 43, 1462A).
In Vitro Inhibitory Potencies of Compounds of this Invention
Against 5-Lipoxygenase from HWBL-1 20,000 xg Supernatant

IC50 [nM] | Compound
730 | CC(/C=C/c1cccc(Oc2ccccc2)c1)NC(=O)CN(O)C(N)=O (stereo not drawn) [Example 12, N-Hydroxy-N-[(((trans-4-(3-phenoxyphenyl)but-3-en-2-yl)amino)carbonyl)methyl]urea]
230 | C=C(C)COc1cccc(C(=O)NCCN(O)C(N)=O)c1 [Example 47, N-Hydroxy-N-[2-((3-(2-methyl-prop-2-enyloxy)benzoyl)amino)ethyl]urea]
290 | CC(CNC(=O)OC(C)(C)C)N(O)C(N)=O (stereo not shown) [Example 85, (d.l)-N-Hydroxy-N-[3-((tert-butyoxycarbonyl)amino)prop-2-yl]urea]
290 | CC(C)Oc1cccc(C(=O)NCCN(O)C(N)=O)c1 [Example 46, N-Hydroxy-N-[2-((3-(1-methylethoxy)benzoyl)amino)ethyl]urea]
480 | NC(=O)N(O)CC(=O)Nc1cccc(Oc2ccccc2)c1 [Example 1, N-Hydroxy-N-[(((3-phenoxyphenyl)amino)carbonyl)methyl]urea]
7300 | CNC(=O)N(O)CC(=O)N(C)c1cccc(Oc2ccccc2)c1 [5, step 3]
5800 | CN(C(=O)CN(O)C(N)=O)c1ccc(Oc2ccccc2)cc1 [Example 4]
230 | COc1ccc(Oc2cccc(C(=O)NCCN(O)C(N)=O)c2)cc1 [Example 28, N-Hydroxy-N-[2-((3-(4-methoxyphenoxy)benzoyl)amino)ethyl]urea]
380 | NC(=O)N(O)CCNC(=O)c1ccc(-c2ccccc2)cc1 [Example 34, N-Hydroxy-N-[2-((4-phenylbenzoyl)amino)ethyl]urea]
910 | N-Hydroxy-N-[2-((3-(4-chlorophenylsulfonyl)benzoyl)amino)ethyl]urea [Example 62]
340 | NC(=O)N(O)CCNC(=O)c1cccc(Oc2cc(Cl)cc(Cl)c2)c1 [Example 30, N-Hydroxy-N-[2-((3-(3.5-dichlorophenoxy)benzoyl)amino)ethyl]urea]
110 | NC(=O)N(O)CCNC(=O)COc1ccc(Oc2ccccc2)cc1 [Example 72, N-Hydroxy-N-[2-((4-phenoxyphenoxyacetyl)amino)ethyl] urea]
430 | NC(=O)N(O)CCNC(=O)c1cccc(Oc2cccc(C(F)(F)F)c2)c1 [Example 25, N-Hydroxy-N-[2-((3-(3-trifluoromethylphenoxy)benzoyl)amino)ethyl]urea]
290 | NC(=O)N(O)CCNC(=O)c1cccn1Cc1ccc(Cl)cc1 [Example 49, N-Hydroxy-N-[2-(((1-(4-chlorophenylmethyl)pyrrol-2-yl)carbonyl)amino)ethyl]urea]
930 | NC(=O)N(O)CCNC(=O)c1csc(-c2ccccc2)n1 [Example 84, N-Hydroxy-N-[2-((2-phenylthiazol-4-oyl)amino)ethyl]urea]
1000 | COc1ccc2cc(/C=C(\C)C(=O)NCCN(O)C(N)=O)ccc2c1 [Example 76, N-Hydroxy-N-[2-(((3-(6-methoxynaphth-2-yl)prop-2-en-2-yl)carbonyl)amino)ethyl]urea]
470 | CC(C)(C)c1ccc(Oc2cccc(C(=O)NCCN(O)C(N)=O)c2)cc1 [Example 31, N-Hydroxy-N-[2-((3-(4-tert-butylphenoxy)benzoyl)amino)ethyl]urea]
830 | CC(/C=C\c1cccc(Oc2ccccc2)c1)NC(=O)CN(O)C(N)=O (stereo not shown) [Example 13]
290 | CNC(=O)N(O)CCNC(=O)c1cccc(Oc2ccccc2)c1 [Example 24, N-Hydroxy-N'-methyl-N-[2-((3-phenoxybenzoyl)amino)ethyl]urea]
760 | CNC(=O)N(O)CCNC(=O)c1cccc(Oc2ccc(Cl)cc2)c1 [Example 27, N-Hydroxy-N'-methyl-N-[2-((3-(4-chlorophenoxy)benzoyl)amino)ethyl]urea]
440 | NC(=O)N(O)CCNC(=O)Cc1ccccc1Nc1c(Cl)cccc1Cl [Example 83, N-Hydroxy-N-[2((2-(2.6-dichlorophenylamino)phenylacetyl)amino)ethyl]urea]
350 | CC(Oc1cccc(C(=O)NCCN(O)C(N)=O)c1)c1ccccc1 (stereo not shown) [Example 67, N-Hydroxy-N-[2-((3-(1-phenylethyloxy)benzoyl)amino)ethyl]urea]
5000 | CC(C)Cc1ccc(C(C)C(=O)NCCN(O)C(N)=O)cc1 (stereo not shown) [Example 82, N-Hydroxy-N-[2-((2-(4-(2-methylpropyl)phenyl)propionyl)amino)ethyl]urea]

IC50 [nM] | Compound
100 | NC(=O)N(O)CCNC(=O)c1ccc2ccccc2n1 [Example 75, N-Hydroxy-N-[2-((quinolin-2-oyl)amino)ethyl]urea]
1900 | COc1cccc(C(=O)NCCN(O)C(N)=O)c1 [Example 16]
290 | CCCCCCOc1ccc(C(=O)NCCN(O)C(N)=O)cc1 [Example 57, N-Hydroxy-N-[2-((4-n-hexyloxybenzoyl)amino)ethyl]urea]
6300 | CN(C(=O)CN(O)C(N)=O)c1cccc(Oc2ccccc2)c1 [5, step 2]
390 | NC(=O)N(O)CCNC(=O)CCc1ccccc1 [Example 77, N-Hydroxy-N-[2-((3-phenylpropionyl)amino)ethyl]urea]
2800 | CN(C(=O)CN(O)C(N)=O)c1cccc(OCc2ccccc2)c1 [Example 9, N-Hydroxy-N-[((N-methyl-(3-phenylmethoxyphenyl)amino)carbonyl)methyl]urea]
5000 | COc1ccc(C(=O)NCCN(O)C(N)=O)cc1 [Example 17]
220 | NC(=O)N(O)CCNC(=O)c1cccc(C(=O)c2ccccc2)c1 [Example 65, N-Hydroxy-N-[2-((3-benzoylbenzoyl)amino)ethyl]urea]
640 | CN(CCN(O)C(N)=O)C(=O)c1cccc(Oc2ccccc2)c1 [Example 15]
6600 | CC(/C=C/c1ccc(Br)cc1)NC(=O)CN(O)C(N)=O (stereo not drawn) [Example 11, N-Hydroxy-N-[(((trans-4-(4-bromophenyl)but-3-en-2-yl)amino)carbonyl)methyl]urea]
1600 | COc1ccc(CN(C)CCN(O)C(N)=O)cc1OCc1ccccc1 [Example 41, N-Hydroxy-N-[2-(((((4-methoxy-3-phenylmethoxy)phenyl)methyl)-N-methyl)amino)ethyl]urea]
390 | CC(C(=O)NCCN(O)C(N)=O)c1cccc(C(C)c2ccccc2)c1 (stereo not shown) [Example 69, N-Hydroxy-N-[2-(((3-(1-phenylethyl)phenyl)propion-2-yl)amino)ethyl]urea]
610 | CC(CNC(=O)c1cccc(Oc2ccccc2)c1)N(O)C(N)=O (stereo not shown) [Example 33, N-Hydroxy-N-[3-((3-phenoxybenzoyl)amino)prop-2-yl]urea]
870 | NC(=O)N(O)CC(=O)Nc1cccc(OCc2ccccc2)c1 [Example 3, N-Hydroxy-N-[(((3-phenylmethoxyphenyl)amino)carbonyl)methyl]urea]
1100 | NC(=O)N(O)CCNS(=O)(=O)c1ccc2ccccc2c1 [Example 48, N-Hydroxy-N-[2-((naphth-2-ylsulfonyl)amino)ethyl]urea]
250 | CC(Oc1ccc(C(=O)NCCN(O)C(N)=O)cc1)c1ccccc1 (stereo not shown) [Example 66, N-Hydroxy-N-[2-((4-(1-phenylethyloxy)benzoyl)amino)ethyl]urea]
4500 | NC(=O)N(O)CCNC(=O)c1ccc(Cl)cc1 [Example 20, N-Hydroxy-N-[2-((4-chlorobenzoyl)amino)ethyl]urea]
100 | NC(=O)N(O)CCNC(=O)c1cscc1Sc1ccc(Cl)cc1 [Example 59, N-Hydroxy-N-[2-((4-(4-chlorothiophenoxy)thien-3-oyl)amino)ethyl]urea]
330 | NC(=O)N(O)CCCCNC(=O)c1cccc(Oc2ccccc2)c1 [Example 22, N-Hydroxy-N-[4-((3-phenoxybenzoyl)amino)butyl]urea]
5800 | CC(CN(O)C(N)=O)N(C)C(=O)c1cccc(Oc2ccc(Cl)cc2)c1 (stereo not shown) [Example 50, N-Hydroxy-N-[2-(((3-(4-chlorophenoxy)benzoyl)-N-methyl)amino)propyl]urea]
3500 | NC(=O)N(O)CC(=O)Nc1ccc(Oc2ccccc2)cc1 [Example 10, N-Hydroxy-N-[(((4-phenoxyphenyl)amino)carbonyl)methyl]urea]
300 | NC(=O)N(O)CCNC(=O)c1cccc(Oc2ccc(Cl)c(Cl)c2)c1 [Example 29, N-Hydroxy-N-[2-((3-(3,4-dichlorophenoxy)benzoyl)amino)ethyl]urea]

Compound | IC50 [nM]
CCCCOc1ccc(C(=O)NCCN(O)C(N)=O)cc1 [Example 18] | 250
